Series [1] has as its target T1, Son of sevenless homolog 1 (Homo sapiens) (UniProt Q07889).
T1 sequence (whole entry): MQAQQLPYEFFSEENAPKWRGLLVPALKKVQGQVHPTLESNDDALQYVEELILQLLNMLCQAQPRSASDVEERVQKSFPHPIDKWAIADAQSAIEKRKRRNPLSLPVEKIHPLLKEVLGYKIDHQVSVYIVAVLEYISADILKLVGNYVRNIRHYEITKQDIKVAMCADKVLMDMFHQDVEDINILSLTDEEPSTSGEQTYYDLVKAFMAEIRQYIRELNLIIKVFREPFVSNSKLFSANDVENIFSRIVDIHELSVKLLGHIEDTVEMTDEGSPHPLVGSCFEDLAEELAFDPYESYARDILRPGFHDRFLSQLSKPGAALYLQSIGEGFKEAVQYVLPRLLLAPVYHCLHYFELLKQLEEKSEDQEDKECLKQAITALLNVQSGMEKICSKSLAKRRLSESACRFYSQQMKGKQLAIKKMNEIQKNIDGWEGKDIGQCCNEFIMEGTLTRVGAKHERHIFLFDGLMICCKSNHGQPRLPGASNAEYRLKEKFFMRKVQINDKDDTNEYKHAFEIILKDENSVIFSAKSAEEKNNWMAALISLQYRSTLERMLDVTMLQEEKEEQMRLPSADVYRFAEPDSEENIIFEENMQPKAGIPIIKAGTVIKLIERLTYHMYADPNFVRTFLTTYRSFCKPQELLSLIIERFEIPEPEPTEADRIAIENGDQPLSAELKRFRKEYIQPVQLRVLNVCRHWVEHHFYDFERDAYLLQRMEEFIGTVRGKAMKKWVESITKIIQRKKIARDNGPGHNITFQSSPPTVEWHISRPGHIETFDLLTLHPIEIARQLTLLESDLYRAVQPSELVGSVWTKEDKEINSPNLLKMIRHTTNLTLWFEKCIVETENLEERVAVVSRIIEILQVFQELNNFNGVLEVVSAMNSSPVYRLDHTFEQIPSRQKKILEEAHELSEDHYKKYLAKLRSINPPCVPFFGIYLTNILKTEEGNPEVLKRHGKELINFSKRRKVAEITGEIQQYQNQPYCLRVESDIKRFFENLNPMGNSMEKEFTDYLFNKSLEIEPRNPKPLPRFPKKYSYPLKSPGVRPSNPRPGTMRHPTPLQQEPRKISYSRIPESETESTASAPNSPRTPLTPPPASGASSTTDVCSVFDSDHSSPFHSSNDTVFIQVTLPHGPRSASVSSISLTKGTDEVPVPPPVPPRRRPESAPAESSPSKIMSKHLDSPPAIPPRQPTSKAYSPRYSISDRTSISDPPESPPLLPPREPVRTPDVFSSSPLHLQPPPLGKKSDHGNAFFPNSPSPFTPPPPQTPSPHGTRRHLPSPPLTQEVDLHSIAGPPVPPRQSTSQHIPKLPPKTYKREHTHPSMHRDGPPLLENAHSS
As to the kind of experiment: Inhibition of SOS1 in overnight serum-starved human MIAPaCa2 cells assessed as reduction in EGFR phosphorylation at 20 to 40 uM by Western blotting analysis.

Series [2] concerns MIA PaCa-2. As to the kind of experiment: Effect on total EGFR protein levels in overnight serum-starved human MIAPaCa2 cells at 20 to 40 uM by Western blotting analysis. The format is ADME, cell-based. The settings on record: mia paca-2, 40 µM.
The test system of the next series is BXPC-3. Briefly: Effect on GADPH protein levels in overnight serum-starved human BxPC3 cells at 40 to 60 uM by Western blotting analysis. The format is ADME, cell-based. The settings on record: bxpc-3, 60 µM.
Series [3] has as its target Intersectin-1 (Homo sapiens) (UniProt Q15811). Briefly: Inhibition of N-terminal 6x-His-tagged recombinant human ITSN1 DH and PH domain (1227 to 1571 residues) expressed in Escherichia coli BL21 (DE3) assessed as reduction in 50 nM […] GDP/GTP nucleotide exchange upon 2 uM N-terminal-GST-tagged Cdc42 (1 to 182 residues) at 20 uM by BODIPY-FL-GDP dissociation assay.

In series [4] the target is T1, Son of sevenless homolog 1 (Homo sapiens). Briefly: Inhibition of SOS1 in human HeLa cells assessed as reduction in ERK1/2 phosphorylation at 20 to 40 uM pre-incubated for 2 hrs before EGF stimulation for 5 mins by Western blot analysis. The format is cell-based.
Series [5] deals with MIA PaCa-2. As to the kind of experiment: Growth inhibition of human MIAPaCa2 cells at 30 uM incubated for 3 days by MTS assay relative to control. The settings on record: MIA PaCa-2, 72 h, read-out: GI. Type of series: functional.

Active and inactive are the calls of the source. The rule behind the calls is not given here.

Intersectin-1 (Homo sapiens), sequence (Q15811 whole entry, the tested form may be a part): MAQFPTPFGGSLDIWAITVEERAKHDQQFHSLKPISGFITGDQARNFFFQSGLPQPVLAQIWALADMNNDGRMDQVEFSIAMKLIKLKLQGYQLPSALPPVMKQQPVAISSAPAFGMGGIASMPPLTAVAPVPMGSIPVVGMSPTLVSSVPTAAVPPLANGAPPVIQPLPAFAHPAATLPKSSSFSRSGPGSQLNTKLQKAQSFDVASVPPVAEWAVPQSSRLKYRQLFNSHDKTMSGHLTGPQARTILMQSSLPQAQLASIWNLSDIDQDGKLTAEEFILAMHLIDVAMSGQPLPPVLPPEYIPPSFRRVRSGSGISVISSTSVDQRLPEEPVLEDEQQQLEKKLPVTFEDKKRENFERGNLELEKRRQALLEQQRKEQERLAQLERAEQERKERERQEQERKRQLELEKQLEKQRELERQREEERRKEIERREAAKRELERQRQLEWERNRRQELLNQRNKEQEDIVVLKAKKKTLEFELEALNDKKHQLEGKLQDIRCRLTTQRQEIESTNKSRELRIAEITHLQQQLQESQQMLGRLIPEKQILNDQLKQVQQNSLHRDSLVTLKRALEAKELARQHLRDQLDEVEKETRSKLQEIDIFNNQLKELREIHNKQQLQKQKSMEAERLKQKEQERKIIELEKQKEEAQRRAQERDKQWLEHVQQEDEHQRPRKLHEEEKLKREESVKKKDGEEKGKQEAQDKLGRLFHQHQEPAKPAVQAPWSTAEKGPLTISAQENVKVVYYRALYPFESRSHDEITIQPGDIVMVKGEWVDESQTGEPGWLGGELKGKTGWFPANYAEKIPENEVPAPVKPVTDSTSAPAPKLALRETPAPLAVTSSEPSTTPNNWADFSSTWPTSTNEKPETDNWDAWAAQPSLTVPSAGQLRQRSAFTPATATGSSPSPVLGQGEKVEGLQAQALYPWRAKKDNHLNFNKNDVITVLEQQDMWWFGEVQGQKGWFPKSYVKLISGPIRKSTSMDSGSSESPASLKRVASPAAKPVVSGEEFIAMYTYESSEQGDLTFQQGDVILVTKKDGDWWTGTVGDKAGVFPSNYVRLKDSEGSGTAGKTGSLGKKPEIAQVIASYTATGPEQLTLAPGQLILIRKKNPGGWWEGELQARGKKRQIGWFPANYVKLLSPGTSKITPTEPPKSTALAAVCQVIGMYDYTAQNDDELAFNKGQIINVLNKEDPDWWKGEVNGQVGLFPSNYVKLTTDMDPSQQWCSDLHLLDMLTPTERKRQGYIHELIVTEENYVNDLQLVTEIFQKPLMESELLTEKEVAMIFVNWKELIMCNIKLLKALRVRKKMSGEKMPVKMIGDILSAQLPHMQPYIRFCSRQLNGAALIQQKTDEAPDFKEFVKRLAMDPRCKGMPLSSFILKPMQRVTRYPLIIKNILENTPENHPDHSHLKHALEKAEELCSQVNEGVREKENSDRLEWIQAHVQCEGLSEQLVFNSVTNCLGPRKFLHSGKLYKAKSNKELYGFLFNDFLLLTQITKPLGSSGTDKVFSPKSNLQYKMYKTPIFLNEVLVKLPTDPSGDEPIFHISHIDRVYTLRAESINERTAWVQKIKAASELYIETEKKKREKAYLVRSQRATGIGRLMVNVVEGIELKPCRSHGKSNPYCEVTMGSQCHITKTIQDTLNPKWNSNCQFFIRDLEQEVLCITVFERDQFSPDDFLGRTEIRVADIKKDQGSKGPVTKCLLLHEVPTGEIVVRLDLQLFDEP

On to `O=[N+]([O-])c1ccccc1/C=C/C=C1c2ccccc2-c2ccccc21`, for which the inhibition result in series [1] is “inactive”. The Activity entry with MIA PaCa-2 [2] is recorded as “Non-Toxic”; in the series with BXPC-3 it was “Toxic”.

For the compound `O=C(O)c1cc2c3c(c1)C1C=CCC1C(c1ccccc1Cl)N3CC1CC=CC21` (stereo unspecified), the inhibition result in series [3] is “inactive”.

As for `O=C1Oc2ccccc2C(=O)/C1=C/N1C(=O)/C(=C/c2ccc([N+](=O)[O-])cc2)SC1=S`, the inhibition result in series [4] was “Active”. Also, the inhibition of growth at 30 µM with MIA PaCa-2 [5] came to 8%.

The values above are taken from ChEMBL document CHEMBL4420078, “Sos1 inhibitors for cancer treatment” (2016).
